The values below come from US20140005163A1 (NOVARTIS AG, priority 2010, published 2014).

For one test, the target named is T1, mTOR (Homo sapiens, UniProt P42345).
T1 construct: purchased Invitrogen Corporation (Carlsbad/CA, USA) PV4753
In words: Biochemical assay for m-TOR by TR-FRET. Particulars: 8 μM ATP, 400 nM GFP-4EBP1, 0.5 nM mTOR. How it is done: Biochemical Assay for m-TOR by TR-FRET.
Assay components are purchased from Invitrogen Corporation (Carlsbad/CA, USA): GFP-4EBP1 (Cat. No. PV4759), Tb3+-α-p4EBP1 [pThr46] Antibody (Cat. No. PV4757), proprietary TR-FRET dilution buffer (Cat. No. PV3574), mTOR protein (Cat. No. PV4753).
Then 5 μL of ATP (8 μM final concentration) and GFP-4EBP1 (400 nM final concentration) with 5 μL mTOR proteins (0.5 nM final concentration) are incubated at rt. The standard reaction buffer for the TR-FRET mTOR assay contained 50 mM HEPES pH 7.5, 10 mM MnCl2, 50 mM NaCl, 1 mM EGTA, 1 mM DTT. Reactions were stopped with 10 μL of a mixture of EDTA containing the Tb3+-α-p4EBP1-[pT46] detection Ab (0.5 nM) in TR-FRET dilution buffer (proprietary to IVG). Plates are read 15 mins later in a Synergy2 reader using an integration time of 0.2 seconds and a delay of 0.1 seconds. […] A standard compound is used as a reference compound and included in all assay plates in the form of 16 dilution points in duplicate.
(In general: Time-resolved FRET reads energy transfer from a long-lived donor to a nearby acceptor.)

The test system of test [1] is PKB Ser473 phosphorylation in Rat1-myr-HA-p110 delta cells. In words: Reverse protein array assay, PKB Ser473 phosphorylation in Rat1-myr-p110 delta cells. The test is classed as cell-based. To be noted: read-out: p-PKB IC50. How it is done:
(§1) The Rat1-myr-HA-p110 alpha, beta and delta cells were trypsinized and counted with a CASY TT cell counter (Schärfe System GmbH, Reutlingen Germany). […] The plates were incubated at 37° C. and 5% CO2 under humidified condition for at least 20 h. Compound of formula I working solutions were prepared freshly as serial 8 step dilutions (vol/vol) in DMSO on the day of the experiment. […] The final DMSO concentration was kept constant at 0.2%. cell culture medium containing 0.2% DMSO was used as vehicle treatment control. Post incubation, the cells were treated with the serial compound dilution. 50 μl of the compound medium mixture was added to the wells containing cells and 150 μl DMEM medium and incubated for 30 minutes (37° C., 5% CO2). After 30 minutes of incubation, the medium mixture was quickly removed by aspiration. […] 50 μl of the described lysis buffer mix was added to each well, followed by 10 minutes of incubation on ice.
(§2) The samples were spotted onto ZeptoMARKt PWG protein microarray chips (Zeptosens, Witterswil, Switzerland) with the piezoelectric microdispense-based, non-contact Nano-Plotter 2.1 (GeSiM, Grosserkmannsdorf, Germany). Each sample was spotted at 4 different sample concentrations (d1=100%, d2=75%, d3=50%, d4=25%) by diluting the cell lysate with the corresponding volume of lysis buffer mix. After spotting the ZeptoMARK® protein microarrays, the chips are incubated for 1 hour at 37° C. […] After 20 minutes of blocking the chips are extensively rinsed with deionized water (Milli-Q quality, 18MΩ×cm) and dried in a nitrogen air flow.
(§3) After incubation, the arrays were washed twice with 200 μl CAB1 buffer. […] The fluorescence signal was assessed with exposure times of 1, 3, 5 and 10 seconds, depending on the intensity of the signal. The resulting four images taken per array are stored as 16-bit TIF files.
(§4) The fluorescence images for each array were analyzed with the ZeptoVIEW Pro 2.0 software (Zeptosens, Witterswil, Switzerland) and the relative fluorescence intensity for each signal was calculated.

The subject of test [2] is PKB Ser473 phosphorylation in Rat1-myr-HA-p110 alpha cells. In words: Reverse protein array assay, PKB Ser473 phosphorylation in Rat1-myr-p110 alpha cells. It counts as cell-based. Particulars: 0.5 h, pAkt Ser473, 30 minutes compound incubation, read-out: p-PKB IC50. How it is done:
as §1, §2, §3, §4

In test [3] the test system is PKB Ser473 phosphorylation in Rat1-myr-HA-p110 beta cells. In words: Reverse protein array assay, PKB Ser473 phosphorylation in Rat1-myr-p110 beta cells. The test is classed as cell-based. To be noted: 0.5 h, pAkt Ser473, 30 minutes incubation, read-out: p-PKB IC50. How it is done: as §1, §2, §3, §4
The subject of test [4] is S6 Ribosomal Protein phosphorylation Ser235/236 in TSC1 null mouse embryo fibroblast (MEF) cells. As to the kind of experiment: Reverse protein array assay, S6 Ribosomal Protein phosphorylation Ser235/236 in TSC1 null MEF cells. The test is classed as cell-based. Particulars: 1 h, pS6 ribosomal protein Ser235/236, 60 minutes incubation, read-out: p-S6 IC50. How it is done:
as §1, with “TSC1−/−” for “Rat1-myr-HA-p110 alpha, beta and delta”, “(Schirfe” for “(Schärfe”, “Working” for “Compound of formula I working”, “0.02%.” for “0.2%.”, “0.02%” for “0.2%”, “60” for “30”
The spotting of the chips follows the previous described method.

Another test deals with T2, PI3K alpha (Homo sapiens, UniProt P42336).
T2 construct: p85(iSH2) fusion partner (see partner chain) (N); His tag (C); made in house; host or cells: baculovirus; Tn5 (Trichoplusia ni) or TiniPro insect cells
T2 sequence (P42336 with tags, fused parts or gaps limits assumed): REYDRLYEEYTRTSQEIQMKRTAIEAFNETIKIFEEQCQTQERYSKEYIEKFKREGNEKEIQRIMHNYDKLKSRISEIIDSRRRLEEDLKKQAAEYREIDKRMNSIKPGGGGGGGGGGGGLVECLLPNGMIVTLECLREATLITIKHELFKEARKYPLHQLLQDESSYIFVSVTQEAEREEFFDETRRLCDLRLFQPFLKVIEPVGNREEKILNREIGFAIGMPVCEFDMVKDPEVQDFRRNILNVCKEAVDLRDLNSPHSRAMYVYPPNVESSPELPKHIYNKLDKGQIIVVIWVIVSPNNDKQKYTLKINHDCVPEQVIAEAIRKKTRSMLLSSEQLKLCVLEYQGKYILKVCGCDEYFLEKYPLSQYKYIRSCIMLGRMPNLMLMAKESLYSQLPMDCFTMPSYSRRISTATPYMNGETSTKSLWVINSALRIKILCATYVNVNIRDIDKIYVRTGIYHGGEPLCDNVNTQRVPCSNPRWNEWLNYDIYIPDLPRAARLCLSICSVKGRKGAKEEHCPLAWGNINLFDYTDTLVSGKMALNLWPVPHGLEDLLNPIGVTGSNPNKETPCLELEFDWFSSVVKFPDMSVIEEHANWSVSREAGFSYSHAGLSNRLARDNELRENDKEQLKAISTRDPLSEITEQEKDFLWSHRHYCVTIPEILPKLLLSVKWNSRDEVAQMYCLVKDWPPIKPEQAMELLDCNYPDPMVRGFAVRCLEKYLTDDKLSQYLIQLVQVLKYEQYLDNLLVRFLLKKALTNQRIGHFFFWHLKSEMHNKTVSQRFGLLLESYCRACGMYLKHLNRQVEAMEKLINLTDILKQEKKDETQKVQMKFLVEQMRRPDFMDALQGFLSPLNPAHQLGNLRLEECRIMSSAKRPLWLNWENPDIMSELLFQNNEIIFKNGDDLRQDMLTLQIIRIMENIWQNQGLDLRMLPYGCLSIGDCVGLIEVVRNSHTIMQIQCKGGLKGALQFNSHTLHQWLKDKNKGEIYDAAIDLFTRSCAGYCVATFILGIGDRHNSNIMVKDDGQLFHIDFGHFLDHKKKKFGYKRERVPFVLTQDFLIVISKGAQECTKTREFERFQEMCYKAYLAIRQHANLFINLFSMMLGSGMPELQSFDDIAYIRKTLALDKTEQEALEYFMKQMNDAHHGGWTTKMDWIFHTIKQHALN
As to the kind of experiment: PI3K alpha kinase assay (Kinase-Glo luminescence). The test is classed as biochemical. How it is done: (§5) In a more preferred assay, the kinase reaction is performed in a final volume of 10 μL per well of a low volume non binding CORNING, 384 well black plate (Cat. No. #3676). The final concentrations of ATP and phosphatidyl inositol (PI) in the assay are 1 μM and 10 μg/mL respectively. The reaction is started by the addition of ATP.
(§6) The components of the assay are added per well as follows:
(§7) […] in 90% DMSO per well, in columns 1-20, 8 concentrations (1/3 and 1/3.33 serial dilution step) in single. • Low control: […] of 90% DMSO in half the wells of columns 23-24 (0.45% in final). • High control: […] of reference compound (e.g. compound of Example 7 in WO 2006/122806) in the other half of columns 23-24 (2.5 μM in final). • Standard: […] of reference compound as just mentioned diluted as the test compounds in columns 21-22 • 20 mL ‘buffer’ are prepared per assay: • 200 μL of 1M TRIS HCl pH7.5 (10 mM in final) • 60 μL of 1M MgCl2 (3 mM in final) • 500 μL of 2M NaCl (50 mM in final) • 100 μL of 10% CHAPS (0.05% in final) • 200 μL of 100 mM DTT (1 mM in final) • 18.94 mL of nanopure water • 10 mL ‘PI’ are prepared per assay: • 200 μL of 1 mg/ml L-alpha-Phosphatidylinositol (Liver Bovine, Avanti Polar Lipids Cat. No. 840042C MW=909.12) prepared in 3% OctylGlucoside (10 μg/ml in final) • 9.8 mL of ‘buffer’ • 10 mL ‘ATP’ are prepared per assay: • 6.7 μL of 3 mM stock of ATP giving a final concentration of 1 μM per well • 10 mL of ‘buffer’ • 2.5 mL of each PI3K construct are prepared per assay in ‘PI’ with the following final concentration: • 10 nM PI3K alfa EMV B1075 • 25 nM beta EMV BV949 • 10 nM delta EMV BV1060 • 150 nM gamma EMV BV950 • 5 μL of ‘PI/PI3K’ are added per well. • 5 μl ‘ATP’ are added per well to start the reaction. • The plates are then incubated at room temperature for 60 minutes (alfa, beta, delta) or 120 minutes (gamma). • The reaction is terminated by the addition of 10 μL Kinase-Glo (Promega Cat. No. #6714). • The assay plates are read after 10 minutes in Synergy 2 reader (BioTek, Vermont USA) with an integration time of 100 milliseconds and sensitivity set to 191. • Output: The High control is around 60'000 counts and the Low control is 30'000 or lower • This luminescence assay gives a useful Z′ ratio between 0.4 and 0.7
Two different constructs, BV 1052 and BV 1075, are used to generate the PI3 Kinase a proteins for compound screening.
(§8) IC50 is determined by a four parameter curve fitting routine that comes along with “excel fit”. […] Alternatively, IC50 values are calculated using idbsXLfit model 204, which is a 4 parameter logistic model.
On the technique in general: In Kinase-Glo more light means more ATP remaining.

The next test concerns the target T3, PI3K delta (Homo sapiens, UniProt O00329).
T3 construct: for the full-length p110-d subunit are generated and fused by overlapping PCR; p85(iSH2) fusion partner (see partner chain) (N); His tag (C); made in house; host or cells: baculovirus; Tn5 (Trichoplusia ni) or TiniPro insect cells
In words: PI3K delta kinase assay (Kinase-Glo luminescence). The test is classed as biochemical. How it is done: as §5, §6, §7
PI3Kγ BV-1060 p85(iSH2)-Gly Linker-p110d(Full-Length)-C-Term his Tag
as §8

T1 sequence (P42345 1360-2549 limits assumed): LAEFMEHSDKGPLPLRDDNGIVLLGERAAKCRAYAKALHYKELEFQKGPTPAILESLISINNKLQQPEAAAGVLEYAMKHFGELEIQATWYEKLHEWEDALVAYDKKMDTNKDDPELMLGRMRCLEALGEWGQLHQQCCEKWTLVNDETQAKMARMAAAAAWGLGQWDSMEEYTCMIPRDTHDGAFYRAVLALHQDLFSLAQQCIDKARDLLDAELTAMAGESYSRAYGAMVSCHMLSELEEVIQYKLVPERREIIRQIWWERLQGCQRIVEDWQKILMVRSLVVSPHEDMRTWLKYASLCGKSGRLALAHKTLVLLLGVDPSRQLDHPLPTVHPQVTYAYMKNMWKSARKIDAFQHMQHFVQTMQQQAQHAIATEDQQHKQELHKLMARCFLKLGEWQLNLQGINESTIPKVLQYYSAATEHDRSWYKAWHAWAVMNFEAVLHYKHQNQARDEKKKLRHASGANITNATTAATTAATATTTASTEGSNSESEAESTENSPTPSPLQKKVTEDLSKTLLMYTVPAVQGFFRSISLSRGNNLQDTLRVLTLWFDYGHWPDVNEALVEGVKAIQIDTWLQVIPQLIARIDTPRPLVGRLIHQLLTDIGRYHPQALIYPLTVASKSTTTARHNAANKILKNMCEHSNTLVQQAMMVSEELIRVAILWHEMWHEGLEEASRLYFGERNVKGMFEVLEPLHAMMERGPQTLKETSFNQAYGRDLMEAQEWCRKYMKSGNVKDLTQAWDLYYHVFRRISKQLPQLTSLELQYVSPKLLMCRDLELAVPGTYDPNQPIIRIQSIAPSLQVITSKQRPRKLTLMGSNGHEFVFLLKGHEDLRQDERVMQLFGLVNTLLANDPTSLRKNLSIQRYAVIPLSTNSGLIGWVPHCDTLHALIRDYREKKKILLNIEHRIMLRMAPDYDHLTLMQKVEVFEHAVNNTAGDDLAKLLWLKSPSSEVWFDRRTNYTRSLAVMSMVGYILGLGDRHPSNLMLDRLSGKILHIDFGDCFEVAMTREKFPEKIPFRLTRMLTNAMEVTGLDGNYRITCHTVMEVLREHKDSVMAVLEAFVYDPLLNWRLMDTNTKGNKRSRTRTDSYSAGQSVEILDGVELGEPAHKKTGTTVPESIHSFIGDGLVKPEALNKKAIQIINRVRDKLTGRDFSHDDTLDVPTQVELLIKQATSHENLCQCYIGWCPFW
T3 sequence (O00329 with tags, fused parts or gaps limits assumed): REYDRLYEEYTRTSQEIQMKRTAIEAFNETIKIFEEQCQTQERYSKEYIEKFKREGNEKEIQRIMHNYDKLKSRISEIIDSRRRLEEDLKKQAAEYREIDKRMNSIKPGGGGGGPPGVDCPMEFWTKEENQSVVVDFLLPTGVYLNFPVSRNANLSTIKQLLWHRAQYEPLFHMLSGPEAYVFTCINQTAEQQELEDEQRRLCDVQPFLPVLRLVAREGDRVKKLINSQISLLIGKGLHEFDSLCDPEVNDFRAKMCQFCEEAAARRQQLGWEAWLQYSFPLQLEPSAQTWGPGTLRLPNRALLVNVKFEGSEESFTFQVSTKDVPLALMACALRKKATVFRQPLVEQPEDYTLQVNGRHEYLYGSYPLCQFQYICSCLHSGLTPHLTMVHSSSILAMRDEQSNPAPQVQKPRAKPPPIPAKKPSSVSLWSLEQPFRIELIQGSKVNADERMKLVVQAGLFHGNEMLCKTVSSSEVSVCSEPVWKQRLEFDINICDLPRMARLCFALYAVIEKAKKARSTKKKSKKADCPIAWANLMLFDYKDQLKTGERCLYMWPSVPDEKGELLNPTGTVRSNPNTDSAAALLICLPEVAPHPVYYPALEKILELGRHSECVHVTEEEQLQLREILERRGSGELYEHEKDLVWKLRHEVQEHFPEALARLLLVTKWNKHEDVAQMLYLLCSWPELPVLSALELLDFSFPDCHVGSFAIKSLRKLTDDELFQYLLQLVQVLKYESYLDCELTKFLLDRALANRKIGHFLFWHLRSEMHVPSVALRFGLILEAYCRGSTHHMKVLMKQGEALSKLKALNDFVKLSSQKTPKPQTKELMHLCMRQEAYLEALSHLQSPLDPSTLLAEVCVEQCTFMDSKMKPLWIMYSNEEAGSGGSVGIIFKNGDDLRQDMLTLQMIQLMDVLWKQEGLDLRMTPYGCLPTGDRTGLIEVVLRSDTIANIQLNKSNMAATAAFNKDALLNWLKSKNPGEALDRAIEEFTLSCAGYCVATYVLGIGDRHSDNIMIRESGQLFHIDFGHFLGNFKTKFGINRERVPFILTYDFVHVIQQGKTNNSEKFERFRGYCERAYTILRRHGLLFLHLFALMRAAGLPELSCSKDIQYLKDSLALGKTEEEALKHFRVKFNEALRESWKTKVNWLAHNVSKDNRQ

By IC50 is commonly meant the concentration that gives 50% inhibition. With `COc1ccc(-c2ccc3ncc4c(c3c2)n(-c2cn(C)nc2Cl)c(=O)n4C)cc1OC` [1.10—], the IC50 on mTOR stood at 14 nM.
For the molecule `COc1ccc(-c2ccc3ncc4c(c3c2)n(-c2cnn(C)c2C)c(=O)n4C)cc1OC` [Example 1.1, 8-(3,4-Dimethoxy-phenyl)-1-(1,5-dimethyl-1H-pyrazol-4-yl)-3-methyl-1,3-dihydro-imidazo[4,5-c]quinolin-2-one], the IC50 in test [1] was 81 nM; in test [2], 22 nM; in test [3], 66 nM; in test [4], 4 nM.
For `CCn1nccc1-n1c(=O)n(C)c2cnc3ccc(-c4ccc(N(C)C)nc4)cc3c21` [Example 4.8, 8-(6-Dimethylamino-pyridin-3-yl)-1-(2-ethyl-2H-pyrazol-3-yl)-3-methyl-1,3-dihydro-imidazo[4,5-c]quinolin-2-one], the IC50 in test [1] was found to be 278 nM; in test [2], 158 nM; in test [3], 154 nM; at mTOR it was 251 nM.
Turning to `Cc1nn(C)cc1-n1c(=O)n(C)c2cnc3ccc(-c4ccc(-n5ccnc5C)nc4)cc3c21` [Example 78, 1-(1,3-Dimethyl-1H-pyrazol-4-yl)-3-methyl-8-[6-(2-methyl-imidazol-1-yl)-pyridin-3-yl]-1,3-dihydro-imidazo[4,5-c]quinolin-2-one], the IC50 in test [1] was 959 nM; in test [2], 264 nM; in test [3], 386 nM.
For the molecule `CCOc1cc(-c2ccc3ncc4c(c3c2)n(-c2cn(C)nc2C)c(=O)n4C)cnc1OC` [Example 94, 1-(1,3-Dimethyl-1H-pyrazol-4-yl)-8-(5-ethoxy-6-methoxy-pyridin-3-yl)-3-methyl-1,3-dihydro-imidazo[4,5-c]quinolin-2-one], the IC50 was 9 nM in test [1], less than 5 nM in test [2] and 11 nM in test [3].
Consider `Cc1nn(CC(=O)N2CCN(C)CC2)cc1-n1c(=O)n(C)c2cnc3ccc(-c4ccccc4)cc3c21` [Example 134, 3-Methyl-1-{3-methyl-1-[2-(4-methyl-piperazin-1-yl)-2-oxo-ethyl]-1H-pyrazol-4-yl}-8-phenyl-1,3-dihydro-imidazo[4,5-c]quinolin-2-one], for which the IC50 at PI3K alpha was determined as 543 nM; on mTOR it was 100 nM.
For `CO[C@H]1CCN(c2ccc(-c3ccc4ncc5c(c4c3)n(-c3cn(C)nc3C)c(=O)n5C)cn2)C1` [Example 213.2, 1-(1,3-Dimethyl-1H-pyrazol-4-yl)-8-[6-((S)-3-methoxy-pyrrolidin-1-yl)-pyridin-3-yl]-3-methyl-1,3-dihydro-imidazo[4,5-c]quinolin-2-one], the IC50 was 211 nM at PI3K delta; 58 nM in test [2]; 119 nM in test [3]; 220 nM on PI3K alpha; 123 nM on mTOR.
Turning to `Cc1nn(C)cc1-n1c(=O)n(C)c2cnc3ccc(-c4ccc(NC5CCOCC5)nc4)cc3c21` [Example 214, 1-(1,3-Dimethyl-1H-pyrazol-4-yl)-3-methyl-8-[6-(tetrahydro-pyran-4-ylamino)-pyridin-3-yl]-1,3-dihydro-imidazo[4,5-c]quinolin-2-one], the IC50 in test [2] came to 285 nM; in test [3], 608 nM; in test [4], 46 nM.
As for `Cc1nn(CC(=O)N2CCN(C)CC2)cc1-n1c(=O)n(C)c2cnc3ccc(-c4cnc(N5CCCC5)nc4)cc3c21` [Example 247.5, 3-Methyl-1-{3-methyl-1-[2-(4-methyl-piperazin-1-yl)-2-oxo-ethyl]-1H-pyrazol-4-yl}-8-(2-pyrrolidin-1-yl-pyrimidin-5-yl)-1,3-dihydro-imidazo[4,5-c]quinolin-2-one], the half-maximal inhibitory concentration (IC50) was determined as 828 nM in test [2], 971 nM on PI3K alpha, 201 nM in test [4] and 99 nM on mTOR.
